# In patent US12171230B2, “Herbicidal compositions” (Bayer Aktiengesellschaft, priority 2018, dated 2024):
# Key:
# Format in all cases: in vivo
# Bromus sterilis = assay: Post-emergence herbicidal action against Bromus sterilis
# Matricaria inodora = assay: Post-emergence herbicidal action against Matricaria inodora
# Galium aparine = assay: Post-emergence herbicidal action against Galium aparine
# Description: (§1) When the observed efficacies exceed the formal sum total of the values of the tests with individual applications, they also exceed the expected value according to Colby, which is calculated using the formula below and is likewise regarded as an indication of synergism (cf. S. R. Colby; in Weeds 15 (1967) p. 20 to 22): E^C=A+B−([…])
# (§2) Here: • A=efficacy of the active compound (A) in % at an application rate of a g a.i./ha; • B=efficacy of the active compound (B) in % at an application rate of b g a.i./ha; • E^C=expected value of the effect of the combination (A)+(B) in % at the combined application rate a+b g a.i./ha.
# (§3) Seeds or rhizome pieces of mono- and dicotyledonous weeds are placed in sandy loam in pots, covered with soil and grown in a greenhouse under good growth conditions (temperature, air humidity, water supply). Three weeks after sowing, the test plants were treated at the three-leaf stage with the compositions according to the invention. The compositions according to the invention formulated as spray powders or as emulsion concentrates were sprayed onto the green plant parts in various dosages with an application rate of 300 to 800 l/ha of water (equivalent). After the test plants have been left to stand in the greenhouse under optimal growth conditions for about 3 to 4 weeks, the action of the preparations is scored visually in comparison to untreated controls. The compositions according to the invention also have good post-emergence herbicidal activity against a broad spectrum of economically important gramineous and broadleaf weeds.
# Centaurea cyano = assay: Post-emergence herbicidal action against Centaurea cyano; conditions: 4.5 g of a.i./ha
# Description: Seeds or rhizome pieces of mono- and dicotyledonous weeds are placed in sandy loam in pots, covered with soil and grown in a greenhouse under good growth conditions (temperature, air humidity, water supply). Three weeks after sowing, the test plants were treated at the three-leaf stage with the compositions according to the invention. The compositions according to the invention formulated as spray powders or as emulsion concentrates were sprayed onto the green plant parts in various dosages with an application rate of 300 to 800 l/ha of water (equivalent).
# Alopecurus myosuroides = assay: Post-emergence herbicidal action against Alopecurus myosuroides
# Lamium purpureum = assay: Post-emergence herbicidal action against Lamium purpureum
# Description: as §1, §2, §3
# Lolium rigidum = assay: Post-emergence herbicidal action against Lolium rigidum
# Viola tricolor = assay: Post-emergence herbicidal action against Viola tricolor
# Phalaris minor = assay: Post-emergence herbicidal action against Phalaris minor
# [1] = system: Lolium rigidum (resistant biotype); assay: Post-emergence herbicidal action against Lolium rigidum (resistant biotype)
# Poa annua = assay: Post-emergence herbicidal action against Poa annua
# Description: as §1, §2, §3
# Bidens pilosa = assay: Post-emergence herbicidal action against Bidens pilosa; conditions: post-emergence, 21 DAT
# Description: as §1, §2, §3
# Amaranthus palmeri = assay: Post-emergence herbicidal action against Amaranthus palmeri; conditions: Amaranthus palmeri, post-emergence, 504 h, read-out: Herbicidal action 21 DAT [%] against Amaranthus palmeri
# Description: as §1, §2, §3
# Pharbitis purpurea = assay: Post-emergence herbicidal action against Pharbitis purpurea; conditions: post-emergence; 21 DAT; 5 g of a.i./ha
# Description: as §1, §2, §3
# Abutilon theophrasti = assay: Post-emergence herbicidal action against Abutilon theophrasti
# From the text: The following abbreviations are used in the description and the tables that follow: • g of a.i./ha=grams of active substance (active ingredient) (=100% active compound) per hectare; • The sum total of the effects of the individual applications is reported under E^A; • expected values according to Colby are each reported under E^C.
# The rating period is reported in days after application (DAT).
smiles,measurement,setting,value
CC(C)C1(C)N=C(c2ncccc2C(=O)O)NC1=O (centres unmarked) [(B4.13) Imazapyr],Herbicidal action in [%] 14 DAT against Bromus sterilis,Bromus sterilis; 0.5 g of a.i./ha,0%
same,Herbicidal action in [%] 14 DAT against Bromus sterilis,Bromus sterilis; 1.5 g of a.i./ha,0%
same,Herbicidal action in [%] 28 DAT against Bromus sterilis,Bromus sterilis; 1.5 g of a.i./ha,10%
same,Herbicidal action in [%] 14 DAT against Bromus sterilis,Bromus sterilis; 4.5 g of a.i./ha,25%
same,Herbicidal action in [%] 28 DAT against Bromus sterilis,Bromus sterilis; 4.5 g of a.i./ha,15%
same,Herbicidal action in [%] 14 DAT against Matricaria inodora,Matricaria inodora; 0.5 g of a.i./ha,0%
same,Herbicidal action in [%] 28 DAT against Matricaria inodora,Matricaria inodora; 0.5 g of a.i./ha,0%
same,Herbicidal action in [%] 28 DAT against Matricaria inodora,Matricaria inodora; 4.5 g of a.i./ha,20%
same,Herbicidal action in [%] 28 DAT against Galium aparine,Galium aparine; 0.5 g of a.i./ha,30%
same,Herbicidal action in [%] 14 DAT against Galium aparine,Galium aparine; 1.5 g of a.i./ha,40%
same,Herbicidal action in [%] 28 DAT against Galium aparine,Galium aparine; 1.5 g of a.i./ha,50%
same,Herbicidal action in [%] 14 DAT against Galium aparine,Galium aparine; 4.5 g of a.i./ha,25%
same,Herbicidal action in [%] 28 DAT against Galium aparine,Galium aparine; 4.5 g of a.i./ha,40%
same,Herbicidal action in [%] 14 DAT against Centaurea cyanus,Centaurea cyano,10%
same,Herbicidal action in [%] 28 DAT against Centaurea cyanus,Centaurea cyano,25%
same,Herbicidal action in [%] 14 DAT against Alopecurus myosuroides,Alopecurus myosuroides; 1.5 g of a.i./ha,10%
same,Herbicidal action in [%] 14 DAT against Alopecurus myosuroides,Alopecurus myosuroides; 4.5 g of a.i./ha,20%
same,Herbicidal action in [%] 28 DAT against Alopecurus myosuroides,Alopecurus myosuroides; 4.5 g of a.i./ha,20%
same,Herbicidal action in [%] 14 DAT against Lamium purpureum L.,Lamium purpureum; 0.5 g of a.i./ha,0%
same,Herbicidal action in [%] 28 DAT against Lamium purpureum L.,Lamium purpureum; 0.5 g of a.i./ha,0%
same,Herbicidal action in [%] 14 DAT against Lamium purpureum L.,Lamium purpureum; 1.5 g of a.i./ha,25%
same,Herbicidal action in [%] 28 DAT against Lamium purpureum L.,Lamium purpureum; 1.5 g of a.i./ha,0%
same,Herbicidal action in [%] 14 DAT against Lamium purpureum L.,Lamium purpureum; 4.5 g of a.i./ha,40%
same,Herbicidal action in [%] 28 DAT against Lamium purpureum L.,Lamium purpureum; 4.5 g of a.i./ha,20%
same,Herbicidal action in [%] 14 DAT against Lolium rigidum,Lolium rigidum; 1.5 g of a.i./ha,0%
same,Herbicidal action in [%] 28 DAT against Lolium rigidum,Lolium rigidum; 1.5 g of a.i./ha,0%
same,Herbicidal action in [%] 14 DAT against Lolium rigidum,Lolium rigidum; 4.5 g of a.i./ha,20%
same,Herbicidal action in [%] 28 DAT against Lolium rigidum,Lolium rigidum; 4.5 g of a.i./ha,15%
same,Herbicidal action in [%] 14 DAT against Viola tricolor,Viola tricolor; 0.5 g of a.i./ha,10%
same,Herbicidal action in [%] 14 DAT against Viola tricolor,Viola tricolor; 1.5 g of a.i./ha,40%
same,Herbicidal action in [%] 28 DAT against Viola tricolor,Viola tricolor; 1.5 g of a.i./ha,20%
same,Herbicidal action in [%] 14 DAT against Viola tricolor,Viola tricolor; 4.5 g of a.i./ha,40%
same,Herbicidal action in [%] 28 DAT against Viola tricolor,Viola tricolor; 4.5 g of a.i./ha,15%
same,Herbicidal action in [%] 14 DAT against Phalaris minor,Phalaris minor; 0.5 g of a.i./ha,0%
same,Herbicidal action in [%] 28 DAT against Phalaris minor,Phalaris minor; 0.5 g of a.i./ha,0%
same,Herbicidal action in [%] 14 DAT against Phalaris minor,Phalaris minor; 1.5 g of a.i./ha,0%
same,Herbicidal action in [%] 28 DAT against Phalaris minor,Phalaris minor; 1.5 g of a.i./ha,10%
same,Herbicidal action in [%] 14 DAT against Phalaris minor,Phalaris minor; 4.5 g of a.i./ha,25%
same,Herbicidal action in [%] 28 DAT against Phalaris minor,Phalaris minor; 4.5 g of a.i./ha,20%
same,Herbicidal action in [%] 14 DAT against Lolium rigidum (resistant biotype),[1]; 0.5 g of a.i./ha,0%
same,Herbicidal action in [%] 14 DAT against Lolium rigidum (resistant biotype),[1]; 1.5 g of a.i./ha,10%
same,Herbicidal action in [%] 28 DAT against Lolium rigidum (resistant biotype),[1]; 1.5 g of a.i./ha,0%
same,Herbicidal action in [%] 14 DAT against Lolium rigidum (resistant biotype),[1]; 4.5 g of a.i./ha,15%
same,Herbicidal action in [%] 28 DAT against Lolium rigidum (resistant biotype),[1]; 4.5 g of a.i./ha,15%
same,Herbicidal action in [%] 28 DAT against Poa annua L.,Poa annua; 0.5 g of a.i./ha,0%
same,Herbicidal action in [%] 14 DAT against Poa annua L.,Poa annua; 1.5 g of a.i./ha,0%
same,Herbicidal action in [%] 28 DAT against Poa annua L.,Poa annua; 1.5 g of a.i./ha,15%
same,Herbicidal action in [%] 14 DAT against Poa annua L.,Poa annua; 4.5 g of a.i./ha,0%
same,Herbicidal action in [%] 28 DAT against Poa annua L.,Poa annua; 4.5 g of a.i./ha,20%
C[n+]1ccc(-c2cc[n+](C)cc2)cc1 [(B5.37) Paraquat],Herbicidal action 21 DAT [%] against Bidens pilosa,Bidens pilosa; 5 g of a.i./ha,0%
same,Herbicidal action 21 DAT [%] against Bidens pilosa,Bidens pilosa; 45 g of a.i./ha,10%
same,pest or weed control at 5 g/ha,Amaranthus palmeri,0%
same,pest or weed control at 45 g/ha,Amaranthus palmeri,10%
same,Herbicidal action 21 DAT [%] against Pharbitis purpurea,Pharbitis purpurea,15%
same,Herbicidal action 21 DAT [%] against Abutilon theophrasti,Abutilon theophrasti; 5 g of a.i./ha,0%
same,Herbicidal action 21 DAT [%] against Abutilon theophrasti,Abutilon theophrasti; 45 g of a.i./ha,10%
